Reference: article PMC9814901, “One-pot synthesis of cyclic-aminotropiminium carboxylate derivatives with DNA binding and anticancer properties” (Communications Chemistry, 2022)

How the values were obtained:
[1] = tested on: HeLa cells; experiment: MTS cell viability assay in HeLa; type: cell-based; settings: 10 nM to 50 μM, 18 h
Protocol: We investigated the effect of nine cATC derivatives (6b/6d/6e/6f/6i/6j/6k/6l/6n) on cell viability in cancer cell-line HeLa and transformed normal cell-line HEK293. We treated cells with the varying concentrations of the compounds ranging from 10 nM to 50 μM for 18 h (optimized).
MTS assay (CellTiter 96® AQueous One Solution Cell Proliferation Assay (Promega, USA) was used to determine the cell viability. HeLa and HEK293 cells (20,000 cells in each well) were plated in 96 well plate and treated with 6e, 6j, and 6n varying concentrations of the compounds ranging from 10 nM to 50 μM for 18 h. The assay was carried out according to the manufacturer’s instructions. Finally, the plate was read in Varioskan™ LUX multimode microplate reader (Thermo Fisher Scientific) at 490 nm.
Cell scavenging activity was calculated using the following formula:
OD(490nm) (control) – OD(490nm) (Test)/OD(490nm) (control) × 100%
Cell Viability of the cell was calculated using the following formula: […]

[2] = tested on: HeLa cells; experiment: cells; parameters: MTS cell viability assay, absorbance at 490 nm; settings: Homo sapiens, 18 h; read-out: IC50 concentration in (µM), HeLa
Protocol: MTS assay (CellTiter 96® AQueous One Solution Cell Proliferation Assay (Promega, USA) was used to determine the cell viability. HeLa and HEK293 cells (20,000 cells in each well) were plated in 96 well plate and treated with 6e, 6j, and 6n varying concentrations of the compounds ranging from 10 nM to 50 μM for 18 h. The assay was carried out according to the manufacturer’s instructions. Finally, the plate was read in Varioskan™ LUX multimode microplate reader (Thermo Fisher Scientific) at 490 nm. We investigated the effect of nine cATC derivatives (6b/6d/6e/6f/6i/6j/6k/6l/6n) on cell viability in cancer cell-line HeLa and transformed normal cell-line HEK293. We treated cells with the varying concentrations of the compounds ranging from 10 nM to 50 μM for 18 h (optimized). […] Cell scavenging for 6e and 6j at 50 μM was 84.74% and 89.87%, respectively, and for 6n at 30 μM it was 75.43%. Corresponding cell viability was 15.25%, 10.13% and, 24.56%, respectively. Fluorescence signal became visible inside cells at 12 μM, 12 μM, and 20 μM concentrations for 6e, 6j, and 6n, respectively (SM, Figs. S31, S34, S37). […] Scavenging activity for 6e, 6j, and 6n was 61.1%, 18.23%, and 30.1%, respectively at 30 μM concentration (Fig. 5D–F). Corresponding cell viability was 38.82%, 81.76%, and 69.86%, respectively. The IC50 value of all the compounds was at the micromolar (μM) level which is shown in the Supplemental Material (Table S9 and S10).

[3] = tested on: ct-DNA duplex; experiment: Circular dichroism of ct-DNA with cATC derivatives; type: binding; settings: increasing concentration of cATC derivatives
From the text: Further, we examined the effect of cATC derivatives (6a/6e/6j/6n) on the ct-DNA duplex structure by circular dichroism (CD) studies. We recorded the CD spectra of ct-DNA with the increasing concentration of cATC derivatives (SM, Fig. S24). […] Next, we examined the binding site of cATC derivative (ligand) at the DNA duplex structure by using AutoDock-Vina, a well-reported computational docking program. We performed docking of cATC derivatives (6a/6d/6k) crystal structure (ligand) with dodecamer DNA duplex crystal structure (PDB ID-1BNA) as the receptor. Our docking results strongly support the non-covalent interaction of cATC derivatives (6a/6d/6k) at the DNA-minor groove with the binding affinity ~7.0 Kcal/mole, mostly hydrophobic interactions (SM, Figs. S25–7, Table S8). […] Overall, cATC derivatives non-covalently bind with DNA duplex through the non-intercalative mode without affecting the native duplex structure. Next, we examined the DNA binding affinity of cATC derivatives (6e/6j/6n) by gel-electrophoresis. The different concentrations of human genomic DNA were treated with EtBr (control) and cATC derivatives (6e/6j/6n) and ran on 1% agarose gel (SM, Fig. S28A–D). […] Further, the Microscale thermophoresis (MST) technique was used to calculate the binding affinities of cATC derivatives (6e/6j/6n) (20 µM) with varying concentrations of human genomic DNA (40 fM to 75 pM).

Row | Structure (SMILES) | IC50 [2] [µM] | melting point [°C] | effect on HeLa cell proliferation [1] | effect on B-type duplex CD spectrum of ct-DNA [3]
1 | O=C([O-])C1C(c2ccc([N+](=O)[O-])cc2)N(Cc2ccccc2)[c+]2cccccc2N1CCc1ccccc1 (stereo not drawn) [Compound 6d, N-Benzyl-N-phenylethyl 4-nitrophenyl troponyl dihydrapyrazine carboxylic acid] | > 50 |  | no or minimal effect | 
2 | O=C([O-])C1C(c2ccccc2)N(Cc2ccccc2)[c+]2cccccc2N1CCc1ccccc1 (stereo not drawn) [Compound 6a, N-benzyl-N-phenylethyl phenyl troponyl dihydropyrazinium carboxylate] |  | 135 to 140 |  | almost remained unchanged
3 | N#Cc1ccc(C2C(C(=O)[O-])N(CCc3ccccc3)c3ccccc[c+]3N2Cc2ccccc2)cc1 (stereo not drawn) [Compound 6f] | > 50 |  | no or minimal effect | 
4 | COc1cc(OC)cc(C2C(C(=O)[O-])N(CCc3ccccc3)c3ccccc[c+]3N2Cc2ccccc2)c1 (stereo not drawn) [Compound 6b] | > 50 |  | no or minimal effect | 
5 | C#CCN1[c+]2cccccc2N(CCc2ccccc2)C(C(=O)[O-])C1c1ccccc1 (stereo not drawn) [Compound 6i] | > 50 | 122 to 125 | no or minimal effect | 

More lines, main results first:

Row | IC50 [2] [µM] | melting point [°C] | Structure (SMILES) | effect on HeLa cell proliferation [1] | effect on B-type duplex CD spectrum of ct-DNA [3]
6 |  | 123 to 125 | CCCCCCCCN1[c+]2cccccc2N(CCc2ccccc2)C(C(=O)[O-])C1c1ccc(F)cc1 (stereo not drawn) [Compound 6k, N-octyl-N-phenylethyl 4-fluorophenyl troponyl dihydrapyrazinium carboxylate] |  | 
7 |  | 118 to 120 | O=C([O-])C1C(C=Cc2ccccc2)N(Cc2ccccc2)[c+]2cccccc2N1CCc1ccccc1 (stereo not drawn) [Compound 6n] |  | 
8 | > 50 |  | O=C([O-])C1C(c2ccc(O)cc2)N(C2CCCCC2)[c+]2cccccc2N1CCc1ccccc1 (stereo not drawn) [Compound 6l] | no or minimal effect | 
